These molecules were tested against T1, catalytic domain of human Bub1 (amino acids 704-1085) (Homo sapiens, UniProt O43683) (assay: Bub1 kinase assay (TR-FRET)). Conditions: not given.
T1 construct: catalytic domain of human Bub1 (amino acids 704-1085); His6 (N); made in house; host or cells: Hi5 insect cells
Format: biochemical
Procedure: To this end, 100-fold concentrated compound solutions (in DMSO) were previously prepared by serial dilution (1:3.4) of 2 mM stocks in a clear low volume 384-well source microtiter plate (Greiner Bio-One, Frickenhausen, Germany), from which 50 nl of compounds were transferred into a black low volume test microtiter plate from the same supplier. […] The resulting mixture (5 μL final volume) was incubated at 22° C. during 60 min., and the reaction was stopped by the addition of 5 μL of an aqueous EDTA-solution (50 mM EDTA, in 100 mM HEPES pH 7.5 and 0.2% (w/v) bovine serum albumin) which also contained the TR-FRET detection reagents (0.2 μM streptavidin-XL665 [Cisbio Bioassays, Codolet, France] and 1 nM anti-phosho-Serine antibody [Merck Millipore, cat. #35-001] and 0.4 nM LANCE EU-W1024 labeled anti-mouse IgG antibody [Perkin-Elmer, product no. AD0077, alternatively a Terbium-cryptate-labeled anti-mouse IgG antibody from Cisbio Bioassays can be used]). The stopped reaction mixture was further incubated 1 h at 22° C. in order to allow the formation of complexes between peptides and detection reagents. Subsequently, the amount of product was evaluated by measurement of the resonance energy transfer from the Eu-chelate-antibody complex recognizing the Phosphoserine residue to the streptavidin-XL665 bound to the biotin moiety of the peptide. […] IC50 values were calculated by fitting the normalized inhibition data to a 4-parameter logistic equation (Minimum, Maximum, IC50, Hill; Y=Max+(Min−Max)/(1+(X/IC50)Hill)).

T1 sequence (O43683 704-1085): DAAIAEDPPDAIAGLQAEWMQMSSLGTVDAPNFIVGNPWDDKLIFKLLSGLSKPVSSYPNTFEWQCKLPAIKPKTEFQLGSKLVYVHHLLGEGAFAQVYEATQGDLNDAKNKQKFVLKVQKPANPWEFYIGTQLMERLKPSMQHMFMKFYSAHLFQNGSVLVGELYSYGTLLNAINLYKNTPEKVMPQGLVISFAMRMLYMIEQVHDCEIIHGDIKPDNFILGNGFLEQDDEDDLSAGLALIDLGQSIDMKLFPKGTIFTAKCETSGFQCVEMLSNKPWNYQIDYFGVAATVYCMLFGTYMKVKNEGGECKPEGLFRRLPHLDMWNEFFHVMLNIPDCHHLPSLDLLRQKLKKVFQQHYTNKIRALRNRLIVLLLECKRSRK

IC50 [nM] | SMILES
290 | CCOc1cc(F)c(Cn2nc(-c3ncc(OC)c(Nc4ccccc4C(=O)O)n3)c3ccccc32)c(F)c1 [Example 2-2-4, 2-({2-[1-(4-ethoxy-2,6-difluorobenzyl)-1H-indazol-3-yl]-5-methoxypyrimidin-4-yl}amino)benzoic acid]
180 | CCOc1cc(F)c(Cn2nc(-c3ncc(OC)c(Nc4ccc(F)cc4C(=O)O)n3)c3ccccc32)c(F)c1 [Example 2-2-5, 2-({2-[1-(4-ethoxy-2,6-difluorobenzyl)-1H-indazol-3-yl]-5-methoxypyrimidin-4-yl}amino)-5-fluorobenzoic acid]
220 | CCOc1cc(F)c(Cn2nc(-c3cc(Nc4ccncn4)ccn3)c3cnccc32)c(F)c1 [Example 2-5-4, N-{2-[1-(4-ethoxy-2,6-difluorobenzyl)-1H-pyrazolo[4,3-c]pyridin-3-yl]pyridin-4-yl}pyrimidin-4-amine]
17000 | Cn1cc(Nc2ccnc(-c3nn(Cc4ccccc4F)c4ccccc34)c2)cn1 [Example 2-6-4, 2-[1-(2-fluorobenzyl)-1H-indazol-3-yl]-N-(1-methyl-1H-pyrazol-4-yl)pyridin-4-amine]

Same assay, conditions: TR-FRET, recombinant catalytic domain of human Bub1, ATP 10 μM, peptide substrate 1 μM; median value; read-out: Biological Assay 1: Bub1 kinase assay median IC50

SMILES | IC50 [nM]
COc1ccc(Cn2nc(-c3ncc(OC)c(Nc4ccnn4C)n3)c3ccccc32)cc1 [Example 2-1-4, 5-methoxy-2-[1-(4-methoxybenzyl)-1H-indazol-3-yl]-N-(1-methyl-1H-pyrazol-5-yl)pyrimidin-4-amine] | 3300
COc1ccc(Cn2nc(-c3ncc(OC)c(Nc4ccccc4)n3)c3ccccc32)cc1 [Example 2-1-5, 5-methoxy-2-[1-(4-methoxybenzyl)-1H-indazol-3-yl]-N-phenylpyrimidin-4-amine] | 3700
COc1ccc(Cn2nc(-c3ncc(OC)c(Nc4ccc(F)cc4)n3)c3ccccc32)cc1 [Example 2-1-6, N-(4-fluorophenyl)-5-methoxy-2-[1-(4-methoxybenzyl)-1H-indazol-3-yl]pyrimidin-4-amine] | 8800
COc1ccc(Cn2nc(-c3nccc(Nc4nnc(N)[nH]4)n3)c3ccccc32)cc1 [Example 2-5-5, N-{2-[1-(4-methoxybenzyl)-1H-indazol-3-yl]pyrimidin-4-yl}-4H-1,2,4-triazole-3,5-diamine] | 2800

Further lines, results first:

IC50 [nM] | SMILES
120 | CCOc1cc(F)c(Cn2nc(-c3cc(Nc4ncnn4CC)ccn3)c3ccccc32)c(F)c1 [Example 2-8-1, 2-[1-(4-ethoxy-2,6-difluorobenzyl)-1H-indazol-3-yl]-N-(1-ethyl-1H-1,2,4-triazol-5-yl)pyridin-4-amine]
800 | CCOc1cc(F)c(Cn2nc(-c3cc(Nc4nnc[nH]4)ccn3)c3ccccc32)c(F)c1 [Example 2-8-2, 2-[1-(4-ethoxy-2,6-difluorobenzyl)-1H-indazol-3-yl]-N-(4H-1,2,4-triazol-3-yl)pyridin-4-amine]

Source: patent US20160046610A1, “3-HETEROARYL SUBSTITUTED INDAZOLES” (BAYER PHARMA AKTIENGESELLSCHAFT, priority 2013, published 2016)
